Data reported in patent US20230263822A1, “MODULATION OF FACTOR 11 EXPRESSION” (Ionis Pharmaceuticals, Inc., priority 2008, published 2023).
Entries after “also recorded” stand apart in the source; their conditions may differ.

Assays:
[1] = tested on: platelet factor-4 (PF-4); experiment: Thrombus formation by PF-4 real-time PCR, FeCl3 induced venous thrombosis model vs Apixaban (Example 14); format: in vivo, BALB/c mice; conditions: for PF-4 in vena cava, percentage as compared to PBS controls (thrombus formation): + FeCl3
Procedure: ISIS 404071 and Apixaban were evaluated in the FeCl3 induced VT mouse model. […] Two days after receiving the last dose of ISIS 404071, mice were anesthetized with 150 mg/kg ketamine mixed with 10 mg/kg xylazine administered by intraperitoneal injection. […] Twenty minutes after receiving Apixaban, mice were anesthetized with 150 mg/kg ketamine mixed with 10 mg/kg xylazine administered by intraperitoneal injection. […] Two days after the last dose of PBS, mice in both groups were anesthetized with 150 mg/kg ketamine mixed with 10 mg/kg xylazine administered by intraperitoneal injection. Thrombus formation was induced with FeCl3 in all of the mice except the first control group.
In mice undergoing FeCl3 treatment, thrombus formation was induced by applying a piece of filter paper (2×4 mm) pre-saturated with 10% FeCl3 solution directly on the vena cava. After 3 minutes of exposure, the filter paper was removed. Thirty minutes after the filter paper application, a fixed length of the vein containing the thrombus was dissected out for platelet analysis. Liver was collected for RNA analysis.
Real-time PCR quantification of platelet factor-4 (PF-4) was used to quantify platelets in the vena cava as a measure of thrombus formation. […] Results are presented as a percentage of PF-4 in ISIS 404071 or Apixaban treated mice, as compared to the two PBS-treated control groups.

[2] = tested on: murine Factor 11 mRNA; experiment: Time course of Factor 11 mRNA reduction in liver after one dose (Example 29); format: in vivo; conditions: BALB/c mice, one s.c. dose of 50 mg/kg, 12 hours to 56 days
Procedure: One dose of 50 mg/kg ISIS 404071 was administered subcutaneously to BALB/c mice. Following ISIS 404071 administration, mice were sacrificed at 12 hours, 1 day, 2 days, 3 days, 4 days, 7 days, 14 days, 28 days, and 56 days. Whole liver was collected for RNA analysis and PPP was collected for aPTT analysis. A control group of mice was treated with one subcutaneous dose of PBS.
RNA was extracted from liver tissue for real-time PCR analysis of Factor 11. Results are presented relative to PBS control. […] Mice began regaining Factor 11 mRNA expression by day 14.

[3] = tested on: murine Factor 11 protein; experiment: Factor 11 protein, F11 assay based on clotting time (Example 10); format: in vivo; conditions: BALB/c mice; for % Inhibition of murine Factor 11 protein: plasma, relative to PBS control
Procedure: BALB/c mice were injected with 5 mg/kg, 10 mg/kg, 25 mg/kg, or 50 mg/kg of ISIS 404057 or ISIS 404071 twice a week for 3 weeks. A control group of mice was injected with phosphate buffered saline (PBS) twice a week for 3 weeks. Mice were sacrificed 5 days after receiving the last dose. Whole liver was harvested for RNA analysis and plasma was collected for clotting analysis (PT and aPTT) and protein analysis.
Factor 11 proenzyme from the plasma of mice treated with ISIS 404071, was measured using a F11 assay based on clotting time. Clotting times were determined in duplicate with a ST4 semi-automated coagulation instrument (Diagnostica Stago, NJ). Thirty μl of citrated sample plasma diluted 1/20 in HEPES-NaCl buffer with BSA was incubated with 30 μl aPTT reagent (Platelet Factor 3 reagent plus particulate activator) and 30 μl of citrated plasma deficient of Factor 11 (human congential, George King Bio-Medical Inc.) at 37° C. to initiate clotting. Results were interpolated on a standard curve of serially diluted citrated control murine plasma.
Results are presented as percent inhibition of Factor 11, relative to PBS control.

[4] = tested on: mouse Factor 11 mRNA; experiment: Sense-oligonucleotide antidote: Factor 11 mRNA in liver (Example 23); format: in vivo, BALB/c mice; conditions: for Percent inhibition of mouse Factor 11 mRNA compared to PBS control: antisense 40 mg/kg s.c. twice a week for three weeks, ISIS 418026 90 mg/kg single injection where given
Procedure: The effect of the specific sense oligonucleotide to ISIS 404071 as an antidote was tested in BALB/c mice. In a first cohort, ISIS 404071 was administered subcutaneously to BALB/c mice twice a week for three weeks at a dose of 40 mg/kg. In a second cohort, ISIS 404057 was administered subcutaneously to BALB/c mice twice a week for three weeks at a dose of 40 mg/kg. The ISIS 404071 specific antidote, ISIS 418026 ([…]; complementary to ISIS 404071), incorporated herein as SEQ ID NO: 13, was administered to both cohorts subcutaneously in a single injection of 90 mg/kg 48 hours after the final treatment of ISIS 404071 or 404057. In a third cohort, ISIS 404071 was administered subcutaneously to BALB/c mice twice a week for three weeks at a dose of 40 mg/kg. Following the last treatment of ISIS 404071, mice were injected subcutaneously injected with PBS. In a fourth cohort, ISIS 404057 was administered subcutaneously to BALB/c mice twice a week for three weeks at a dose of 40 mg/kg. Following the last treatment of ISIS 404057, mice were injected subcutaneously injected with PBS. Following antidote administration, a set of 4 mice from each cohort were sacrificed at 12 hours, 1 day, 2 days, 3 days, 7 days, and 14 days. Whole liver was collected for RNA analysis and PPP was collected for aPTT analysis.
RNA was extracted from liver tissue for real-time PCR analysis of Factor 11. Results are presented as percent inhibition of Factor 11, relative to PBS control.

Substance: ISIS 404071: antisense oligonucleotide targeted to murine Factor 11 mRNA, TGGTAATCCACTTTCAGAGG, target start site 869 (chemistry not given here)
- PF-4 in vena cava as measure of thrombus formation ([1]; FeCl3 induced VT model, vs PBS control): resulted in reduction of PF-4
- PF-4 in vena cava, percentage as compared to PBS controls (thrombus formation) ([1]; ISIS 404071 1.25 mg/kg subcutaneously twice a week for 3 weeks): 42%
- PF-4 in vena cava, percentage as compared to PBS controls (thrombus formation) ([1]; ISIS 404071 5 mg/kg subcutaneously twice a week for 3 weeks): 60%
- PF-4 in vena cava, percentage as compared to PBS controls (thrombus formation) ([1]; ISIS 404071 10 mg/kg subcutaneously twice a week for 3 weeks): 28%
- PF-4 in vena cava, percentage as compared to PBS controls (thrombus formation) ([1]; ISIS 404071 25 mg/kg subcutaneously twice a week for 3 weeks): 14%
- PF-4 in vena cava, percentage as compared to PBS controls (thrombus formation) ([1]; ISIS 404071 50 mg/kg subcutaneously twice a week for 3 weeks): 4%
- Factor 11 mRNA expression in liver over time [2]: significant Factor 11 mRNA down-regulation by day 1; also recorded: regained full Factor 11 mRNA expression by day 28; also recorded: did not experience a rebound effect
- Factor 11 protein ([3]; 5-50 mg/kg): significant dose-dependent reduction of Factor 11 protein
- % Inhibition of murine Factor 11 protein ([3]; 5 mg/kg): 39%
- % Inhibition of murine Factor 11 protein ([3]; 10 mg/kg): 67%
- % Inhibition of murine Factor 11 protein ([3]; 25 mg/kg): 89%
- % Inhibition of murine Factor 11 protein ([3]; 50 mg/kg): 96%
- Percent inhibition of mouse Factor 11 mRNA compared to PBS control ([4]; 12 hours after antidote/PBS): 93%
- Percent inhibition of mouse Factor 11 mRNA compared to PBS control ([4]; 1 day after antidote/PBS): 90%
- Percent inhibition of mouse Factor 11 mRNA compared to PBS control ([4]; 2 days after antidote/PBS): 89%
- Percent inhibition of mouse Factor 11 mRNA compared to PBS control ([4]; 3 days after antidote/PBS): 88%
- Percent inhibition of mouse Factor 11 mRNA compared to PBS control ([4]; 7 days after antidote/PBS): 81%
- Percent inhibition of mouse Factor 11 mRNA compared to PBS control ([4]; 14 days after antidote/PBS): 67%
- inhibition of Factor 11 mRNA over the 14 day observation period ([4]; BALB/c mice, ISIS 404071 40 mg/kg, with or without ISIS 418026 90 mg/kg): progressive decrease in inhibition
